Entries after “also recorded” stand apart in the source; their conditions may differ.
Experiments:
PSMA^+ PC-3 PIP tumors [1] = experiment: Biodistribution test with mice transplanted with prostate cancer cell lines (gamma counter); format: in vivo, nude mouse; conditions: 5 hours after injection
Description: After 270 minutes of [^68Ga]1e and [^68Ga]1g injection, microPET/CT images were obtained for 30 minutes, and then each organ (blood, muscle, fat, heart, lung, liver, spleen, stomach, intestine, kidney, bone and tumor) was extracted and the radioactivity thereof was measured using a gamma counter.

PSMA^+ PC-3 PIP tumors [2] = experiment: MicroPET/CT imaging of mice transplanted with prostate cancer cell lines; format: in vivo, nude mouse
Description: A tumor model was prepared by subcutaneously injecting PSMA^+ PC-3 PIP cells (a human prostate cancer cell line) to the right side of the nude mouse hind leg. Each of the ^68Ga-labeled compounds [^68Ga]1e, [^68Ga]1g, [^68Ga]1h and [^68Ga]1k was intravenously injected with 5.5 to 6.5 MBq (148-175 μCi/200 μL), and PET/CT images were obtained using small animal INVEON PET/CT (Siemens medical solutions, Knoxville, USA) for 60 minutes. After 150 minutes, 270 minutes, and 390 minutes, PET/CT images were also obtained for 30 minutes. The obtained PET/CT image results were quantitatively analyzed using Inveon™ Research Workplace (IRW).
FIGS. 1, 2, 3, and 4 are graphs showing the quantitative analysis results of MicorPET/CT images for [^68Ga]1e, [^68Ga]1g, [^68Ga]1h, and [^68Ga]1k in % injected dose (ID)/g, and summarized in Tables 3, 4, 5, and 6, respectively.

[3] = Measurement of lipophilicity (log P), n-octanol/PBS; format: physicochemical; conditions: mean of 3
Description: Each of the [^68Ga]1 compounds (1˜2 mci) synthesized in Example 14 was transferred into a vial, and the solvent was removed, to which 1 mL of n-octanol and 1 mL of PBS were added, and the lid was well closed, followed by mixing with a vortex for 1 minute. After the layers were separated, 0.1 mL was taken from each layer and the radiation dose was measured. The radiation dose was measured by repeating 3 times, and the mean value was obtained.

PSMA = PSMA (Homo sapiens, UniProt Q04609); conditions: cited from earlier work
PSMA, sequence (Q04609 whole entry): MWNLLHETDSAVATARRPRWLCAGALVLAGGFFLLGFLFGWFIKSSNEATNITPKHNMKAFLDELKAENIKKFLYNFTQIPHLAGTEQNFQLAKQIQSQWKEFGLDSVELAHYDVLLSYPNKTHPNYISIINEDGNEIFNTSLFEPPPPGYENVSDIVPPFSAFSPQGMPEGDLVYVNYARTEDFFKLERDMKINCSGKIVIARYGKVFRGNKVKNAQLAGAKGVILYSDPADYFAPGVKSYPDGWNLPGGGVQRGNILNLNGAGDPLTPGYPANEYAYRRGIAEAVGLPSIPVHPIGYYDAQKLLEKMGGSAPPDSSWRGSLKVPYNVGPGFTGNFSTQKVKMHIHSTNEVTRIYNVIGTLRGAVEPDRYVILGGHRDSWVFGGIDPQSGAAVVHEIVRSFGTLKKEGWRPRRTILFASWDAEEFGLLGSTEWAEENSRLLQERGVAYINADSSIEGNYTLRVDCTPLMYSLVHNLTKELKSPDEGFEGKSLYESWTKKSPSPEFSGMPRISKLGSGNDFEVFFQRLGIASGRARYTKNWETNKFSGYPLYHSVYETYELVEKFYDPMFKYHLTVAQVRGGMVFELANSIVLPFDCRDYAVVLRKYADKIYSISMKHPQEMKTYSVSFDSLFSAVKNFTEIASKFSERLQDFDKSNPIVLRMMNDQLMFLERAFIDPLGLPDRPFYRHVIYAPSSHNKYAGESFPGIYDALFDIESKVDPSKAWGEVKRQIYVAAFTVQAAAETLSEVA

## Cc1ccc(CCCC(=O)NCCCCC(NC(=O)CN2CCN3CCN4CCN(CC2)CC(=O)[O][68Ga]([O]C(=O)C3)[O]C(=O)C4)C(=O)NCCOCCOCC(=O)N(CCCCC(NC(=O)NC(CCC(=O)O)C(=O)O)C(=O)O)CC(=O)O)cc1 (stereo not shown) [[^68Ga]1g]
PSMA^+ PC-3 PIP tumors [1]
  tumor intake rate, times higher than that of [^68Ga]1e: about 1.4 times
PSMA^+ PC-3 PIP tumors [1]; gamma counter
  Radioactivity in mouse organ: Blood: 0.02 ± 0.03 % ID/g
  Radioactivity in mouse organ: Bone: 0.01 ± 0.01 % ID/g
  Radioactivity in mouse organ: Fat: 0.11 ± 0.15 % ID/g
  Radioactivity in mouse organ: Heart: 0.02 ± 0.01 % ID/g
  Radioactivity in mouse organ: Intestine: 0.09 ± 0.08 % ID/g
  Radioactivity in mouse organ: Kidney: 9.15 ± 11.26 % ID/g
  Radioactivity in mouse organ: Liver: 0.03 ± 0.01 % ID/g
  Radioactivity in mouse organ: Lung: 0.07 ± 0.07 % ID/g
  Radioactivity in mouse organ: Muscle: 0.01 ± 0.00 % ID/g
  Radioactivity in mouse organ: Spleen: 0.20 ± 0.27 % ID/g
  Radioactivity in mouse organ: Stomach: 0.02 ± 0.02 % ID/g
PSMA^+ PC-3 PIP tumors [2]; 10 min after injection
  intake of mouse organ: Bladder: 2.28 ± 0.11 % ID/g
  intake of mouse organ: Kidney: 16.40 ± 0.10 % ID/g
  intake of mouse organ: Liver: 9.55 ± 2.22 % ID/g
  intake of mouse organ: Muscle: 1.49 ± 1.64 % ID/g
  intake of mouse organ: Tumor (PIP): 2.18 ± 0.63 % ID/g
PSMA^+ PC-3 PIP tumors [2]; 20 min after injection
  intake of mouse organ: Bladder: 6.98 ± 2.51 % ID/g
  intake of mouse organ: Kidney: 19.80 ± 0.73 % ID/g
  intake of mouse organ: Liver: 7.26 ± 1.06 % ID/g
  intake of mouse organ: Muscle: 1.88 ± 2.00 % ID/g
  intake of mouse organ: Tumor (PIP): 4.42 ± 1.50 % ID/g
PSMA^+ PC-3 PIP tumors [2]; 30 min after injection
  intake of mouse organ: Bladder: 13.51 ± 5.83 % ID/g
  intake of mouse organ: Kidney: 21.18 ± 2.17 % ID/g
  intake of mouse organ: Liver: 6.10 ± 0.50 % ID/g
  intake of mouse organ: Muscle: 1.69 ± 1.78 % ID/g
  intake of mouse organ: Tumor (PIP): 5.43 ± 1.94 % ID/g
PSMA^+ PC-3 PIP tumors [2]; 40 min after injection
  intake of mouse organ: Bladder: 18.89 ± 8.84 % ID/g
  intake of mouse organ: Kidney: 22.74 ± 3.48 % ID/g
  intake of mouse organ: Liver: 5.38 ± 0.22 % ID/g
  intake of mouse organ: Muscle: 1.61 ± 1.69 % ID/g
  intake of mouse organ: Tumor (PIP): 6.43 ± 2.32 % ID/g
PSMA^+ PC-3 PIP tumors [2]; 50 min after injection
  intake of mouse organ: Bladder: 22.76 ± 10.86 % ID/g
  intake of mouse organ: Kidney: 24.20 ± 4.60 % ID/g
  intake of mouse organ: Liver: 4.75 ± 0.07 % ID/g
  intake of mouse organ: Muscle: 1.54 ± 1.62 % ID/g
  intake of mouse organ: Tumor (PIP): 7.33 ± 2.76 % ID/g
PSMA^+ PC-3 PIP tumors [2]; 60 min after injection
  intake of mouse organ: Bladder: 24.74 ± 11.23 % ID/g
  intake of mouse organ: Kidney: 25.78 ± 4.72 % ID/g
  intake of mouse organ: Liver: 4.41 ± 0.03 % ID/g
  intake of mouse organ: Muscle: 1.32 ± 1.33 % ID/g
  intake of mouse organ: Tumor (PIP): 8.29 ± 2.99 % ID/g
PSMA^+ PC-3 PIP tumors [2]; 150 min after injection
  intake of mouse organ: Bladder: 42.3 ± 41.58 % ID/g
  intake of mouse organ: Kidney: 15.75 ± 11.53 % ID/g
  intake of mouse organ: Liver: 0.45 ± 0.11 % ID/g
  intake of mouse organ: Muscle: 0.21 ± 0.03 % ID/g
  intake of mouse organ: Tumor (PIP): 11.4 ± 5.23 % ID/g
PSMA^+ PC-3 PIP tumors [2]; 270 min after injection
  intake of mouse organ: Bladder: 12.05 ± 2.76 % ID/g
  intake of mouse organ: Kidney: 12.45 ± 9.69 % ID/g
  intake of mouse organ: Liver: 0.22 ± 0.01 % ID/g
  intake of mouse organ: Muscle: 0.06 ± 0.02 % ID/g
  intake of mouse organ: Tumor (PIP): 13.00±4.95 % ID/g
PSMA^+ PC-3 PIP tumors [2]; 270 minutes
  tumor intake increase compared to [^68Ga]1e: about 3 times
PSMA^+ PC-3 PIP tumors [2]; MicroPET/CT
  excretion, in words: rapidly excreted out of the body
  residence time in the blood, in words: residence time in the blood was increased
  tumor intake over time, in words: tumor intake was increased over time
[3]
  logP: −2.42

## O=C(O)CCC(NC(=O)NC(CCCCN(CC(=O)O)C(=O)COCCOCCNC(=O)CN1CCN2CCN3CCN(CC1)CC(=O)[O][68Ga]([O]C(=O)C2)[O]C(=O)C3)C(=O)O)C(=O)O (stereo not shown) [[^68Ga]1e]
PSMA^+ PC-3 PIP tumors [1]; gamma counter
  Radioactivity in mouse organ: Blood: 0.01 ± 0.00 % ID/g
  Radioactivity in mouse organ: Bone: 0.00 ± 0.00 % ID/g
  Radioactivity in mouse organ: Fat: 0.01 ± 0.00 % ID/g
  Radioactivity in mouse organ: Heart: 0.01 ± 0.00 % ID/g
  Radioactivity in mouse organ: Intestine: 0.09 ± 0.08 % ID/g
  Radioactivity in mouse organ: Kidney: 0.82 ± 0.51 % ID/g
  Radioactivity in mouse organ: Liver: 0.02 ± 0.01 % ID/g
  Radioactivity in mouse organ: Lung: 0.02 ± 0.01 % ID/g
  Radioactivity in mouse organ: Muscle: 0.01 ± 0.00 % ID/g
  Radioactivity in mouse organ: PSMA + PIP (tumor intake rate): 7.34 ± 5.49 % ID/g
  Radioactivity in mouse organ: Spleen: 0.01 ± 0.00 % ID/g
  Radioactivity in mouse organ: Stomach: 0.02 ± 0.02 % ID/g
PSMA^+ PC-3 PIP tumors [2]; 10 min after injection
  intake of mouse organ: Bladder: 19.37 ± 0.32 % ID/g
  intake of mouse organ: Kidney: 21.37 ± 9.18 % ID/g
  intake of mouse organ: Liver: 4.76 ± 0.42 % ID/g
  intake of mouse organ: Muscle: 1.46 ± 0.14 % ID/g
  intake of mouse organ: Tumor (PIP): 2.33 ± 0.36 % ID/g
PSMA^+ PC-3 PIP tumors [2]; 20 min after injection
  intake of mouse organ: Bladder: 47.31 ± 7.34 % ID/g
  intake of mouse organ: Kidney: 10.96 ± 4.32 % ID/g
  intake of mouse organ: Liver: 1.96 ± 0.22 % ID/g
  intake of mouse organ: Muscle: 1.38 ± 0.11 % ID/g
  intake of mouse organ: Tumor (PIP): 3.64 ± 0.49 % ID/g
PSMA^+ PC-3 PIP tumors [2]; 30 min after injection
  intake of mouse organ: Bladder: 55.82 ± 12.46 % ID/g
  intake of mouse organ: Kidney: 10.88 ± 7.09 % ID/g
  intake of mouse organ: Liver: 1.29 ± 0.05 % ID/g
  intake of mouse organ: Muscle: 0.95 ± 0.13 % ID/g
  intake of mouse organ: Tumor (PIP): 4.08 ± 0.60 % ID/g
PSMA^+ PC-3 PIP tumors [2]; 40 min after injection
  intake of mouse organ: Bladder: 60.63 ± 15.48 % ID/g
  intake of mouse organ: Kidney: 14.92 ± 13.57 % ID/g
  intake of mouse organ: Liver: 1.00 ± 0.03 % ID/g
  intake of mouse organ: Muscle: 0.61 ± 0.05 % ID/g
  intake of mouse organ: Tumor (PIP): 4.44 ± 0.48 % ID/g
PSMA^+ PC-3 PIP tumors [2]; 50 min after injection
  intake of mouse organ: Bladder: 64.24 ± 12.76 % ID/g
  intake of mouse organ: Kidney: 15.84 ± 15.60 % ID/g
  intake of mouse organ: Liver: 0.80 ± 0.02 % ID/g
  intake of mouse organ: Muscle: 0.53 ± 0.05 % ID/g
  intake of mouse organ: Tumor (PIP): 4.56 ± 1.03 % ID/g
PSMA^+ PC-3 PIP tumors [2]; 60 min after injection
  intake of mouse organ: Bladder: 67.80 ± 8.56 % ID/g
  intake of mouse organ: Kidney: 15.72 ± 16.29 % ID/g
  intake of mouse organ: Liver: 0.65 ± 0.04 % ID/g
  intake of mouse organ: Muscle: 0.35 ± 0.05 % ID/g
  intake of mouse organ: Tumor (PIP): 4.73 ± 0.98 % ID/g
PSMA^+ PC-3 PIP tumors [2]; 150 min after injection
  intake of mouse organ: Bladder: 31.85 ± 35.57 % ID/g
  intake of mouse organ: Kidney: 0.70 ± 0.02 % ID/g
  intake of mouse organ: Liver: 0.06 ± 0.01 % ID/g
  intake of mouse organ: Muscle: 0.02 ± 0.01 % ID/g
  intake of mouse organ: Tumor (PIP): 4.20 ± 0.42 % ID/g
PSMA^+ PC-3 PIP tumors [2]; 270 min after injection
  intake of mouse organ: Bladder: 1.45 ± 1.62 % ID/g
  intake of mouse organ: Kidney: 0.41 ± 0.16 % ID/g
  intake of mouse organ: Liver: 0.03 ± 0.01 % ID/g
  intake of mouse organ: Muscle: 0.01 ± 0.01 % ID/g
  intake of mouse organ: Tumor (PIP): 4.05±0.64 % ID/g
PSMA^+ PC-3 PIP tumors [2]; MicroPET/CT
  excretion, in words: rapidly excreted through the kidney and bladder; also recorded: rapidly excreted out of the body
[3]
  logP: −2.88

## O=C(O)CC[C@H](NC(=O)N[C@@H](CCCCNC(=O)Nc1ccc([125I])cc1)C(=O)O)C(=O)O [[^125I]30]
PSMA
  Kd: 0.13 nM
